Earlier results in US20230003743A1, “METHODS AND COMPOSITIONS FOR TREATING OR PREVENTING AN ALLERGY OR ANAPHYLAXIS” (THE CHILDREN'S MEDICAL CENTER CORPORATION, priority 2020, published 2023).

System: humanized mouse model of FA
Conditions: SCID mice engrafted with human CD34+ hematopoietic stem cells, peanut-sensitized, enterally challenged with PN

## Omalizumab
  anaphylactic response (hypothermia, increases in plasma tryptase levels) upon enteral peanut challenge: ablates this anaphylactic response
